Assay results from patent publication US20150004631A1, “Plasmodium falciparum HLA class I restricted T-cell epitopes” (priority 2013, published 2015).
No end group written: not given here.

Assays:
Format in all cases: cell-based, human
[1] = system: PBMC; assay: ELISpot IFN-γ assay, PBMC of Ad5-PfCA immunized volunteers (Gp1); conditions: for ELISpot activity of 15 mer peptide: v005, 1 month PBMC
Procedure: […] In these studies, IFN-γ activity was measured in response to exposure to the peptide pools. The assays were conducted essentially as described by Wang, et al., Proc. Natl. Acad. Sci. (U.S.A.), 98: 10817-22.
The stimulation of circulating antigen-specific T cell lymphocytes was evaluated by measurement of γ-IFN induction by ELISPOT. The ELISpot assay was conducted using thawed cryopreserved PBMC at 200K cells per well. Pre-challenge cells were taken at day 21 and day 22 post AdPfCA vaccination. Cells were suspended in […] complete medium and were stimulated with AMA1 peptides suspended in […] of complete medium. Peptide concentrations used in assays was 10 μg/ml of each peptide tested. Cultures were incubated for 36 h at 37° C., 5% CO2. Depending on availability of cells, each PBMC sample was assayed in duplicate, triplicate, or quadruplicate and the number of IFN-γ-secreting cells recognized as spot-forming cells (SFC) was enumerated using an automated ELISpot reader. In duplicate assays, all values were used in analysis. For triplicate or quadruplicate assays, outliers were rejected if any single value contributed more than 50% of the standard deviation of the triplicate (or quadruplicate) and if its value was three-fold greater or less than the average of the remaining two (or three) values. The mean spot forming cells (SFCs) obtained in negative control wells were subtracted from the value of each test well from the same sample. Negative counts generated by this background subtraction were converted to zero. The mean spot number of the test sample was then calculated and expressed as SFC/million PBMCs. Values obtained with pre-vaccinated samples were subtracted from the post-vaccination values.

[2] = system: CD4+ and CD8+ T cells; assay: Intracellular cytokine staining (ICS) of PBMC; conditions: for CD8^+ T cell IFN-γ response in ICS: HLA-matched volunteers, compared with parent peptide pool, FIG. 1 upper panel; for multifunctional CD8^+ T cell responses in ICS: v008 and v012, any two of IFN-γ, IL-2, TNF-α, FIG. 1 lower panel
Procedure: ICS was performed on PBMCs with costimulatory antibodies anti-CD28 and […] (obtained from BD Bioscience™, San Jose, Calif.). The peptides were used at the same concentrations as in ELISpot assays. Stimulants were added t cells and incubated at 37° C. with 5% CO2 for 2 hr. Golgi Plug™ (Brefeldin A) (BD Bioscience™, San Jose, Calif.) was added at a final concentration of 0.6 μL/mL and incubated at 37° C. with 5% CO2 overnight. Cells were stained with anti-CD3 (Alexa Fluor 700™), anti-CD4 (PerCP™), and anti-CD8 Pacific Blue™ (obtained from BD Bioscience™, San Jose, Calif.). and 1 μg/mL of live/dead fixable blue dye, incubated and washed. Cells were permeabilized with Cytofix/Cytoperm™ solution (obtained from BD Bioscience™, San Jose, Calif.), incubated and washed. Cells were stained intracellularly with anti-CD3 (Alexa Fluor 700™), anti-CD4 (PerCP™), and anti-CD8 Pacific Blue™, anti-IFN-γ FITC, anti-TNF PE, and anti-IL2 APC, incubated and washed. Cells were resuspended and the entire available sample was acquired by flowcytometry. The gating strategy included progressively measuring total cells; viable cells only; lymphocytes; T cells; CD4^+ CD8^+ populations; and a specific cell type expressing a specific cytokine. Histograms were used to determine the total production of IFN-γ, IL2, and TNF for the CD4^+ and CD8^+ populations. Boolean gates were used to determine cells producing combinations of cytokines.
In these studies, T cells containing IFN-γ, IL2, or TNFα, were gated into different subsets: IFN-γ+, IL2+, TNFα−; IFN-γ+, IL2−, TNFα+; IFN-γ+, IL2+, TNFα+; or IFN-γ+, IL2−, TNFα− T cells, and stimulated with the predicted epitopes and their parent peptide pool. The frequency of CD8^+ T cells producing total IFN-γ was far greater than CD4^+ T cell responses (FIG. 1, upper panel), which were extremely low.

[3] = system: CD4+ or CD8+ T cell depleted PBMC; assay: ELISpot IFN-γ assay after CD4+ or CD8+ T cell depletion of PBMC (Example 1); conditions: versus control depletion
Procedure: PBMC population depletion was conducted using anti-human CD4+ and anti-CD8^+ coated Dynabeads™ M-450 (Dynal, Great Neck, N.Y.) following the manufacturer's instructions. Mock depletion was done with Dynabeads coated with Sheep anti-mouse IgG. Flow cytometry confirmed that T-cell subset depletions were >99% in all experiments. The data is presented as the % effect (decrease) in activity after T cell subset depletion.
Finally, we wanted to confirm that indeed the responses to AMA14e were mediated by CD8^+ T cells. We compared activity to AMA14e in ELISpot depletion assays and ICS CD4^+ or CD8^+ T cell IFN-γ assays with Ap1-12 and recombinant AMA1 protein with v001 and v005 (FIG. 3). CD8^+ T cell depletion reduced ELISpot activity to AMA14e by about 85% in v001 and 95% in v005.

[4] = system: PBMC; assay: ELISpot IFN-γ assay, PBMC of AdPfCA / DNA prime-AdPfCA boost volunteers (Example 2); conditions: minimal epitope contained in Ap10; primarily CD8^+
Excerpt: To more clearly define immunological active regions of AMA1, PBMCs were isolated from AMA1 immunized volunteers. Two groups of volunteers, i.e., Gp 1 (from example 1, above) and Gp2, received 2×10^10 particle units of AdPfCA (NMRC-M3V-Ad-PfCA, NMRC+Multi-antigen Multi-stage, Malaria Vaccine+Adenovector+P. falciparum CSP & AMA1 antigens). The vaccine is a combination of two separate recombinant Ad5 constructs, one expressing full length CSP and the other expressing full length apical membrane antigen 1 (AMA1). AdPfCA expressed the AMA1 regions A1 through A12. Twenty-eight (28) days later, PBMC's were collected.
In a third group (termed preCh in FIG. 7 and FIG. 8), fifteen volunteers were primed with three doses (2 mg/dose) with one month between doses. Sixteen weeks after the final DNA priming dose, each volunteer received 2×10^10 particle units of AdPfCA. PBMC's were collected on day 22-23 after receiving AdPfCA. […]
The stimulation of circulating antigen-specific T cell lymphocytes was evaluated by measurement of γ-IFN induction by ELISPOT. […] Depending on availability of cells, each PBMC sample was assayed in duplicate, triplicate, or quadruplicate and the number of IFN-γ-secreting cells recognized as spot-forming cells (SFC) was enumerated using an automated ELISpot reader. […] The mean spot number of the test sample was then calculated and expressed as SFC/million PBMCs. […]

## HVNEFPAIDLFECNK [Ap7-4]
[1]; Volunteer 001
  IFN-γ ELISpot activity of individual 15 mer peptide: 96 SFC/10^6

## EDIPHVNEFPAIDLF [Ap7-3]
[1]; Volunteer 001
  IFN-γ ELISpot activity of individual 15 mer peptide: 139 SFC/10^6

## TLDEMRHFY [Ep # 8]
[2]
  CD8^+ T cell IFN-γ response in ICS: equal or more CD8^+ IFN-γ than the parent peptide pool
[1]; Vol 002, PBMC 4 months
  ELISpot 4m, predicted 8-10 mer epitope: 51

## REHPKEYEYPLHQEH [Ap1-12]
[1]; Volunteer 002
  IFN-γ ELISpot activity of individual 15 mer peptide: 66 SFC/10^6
[1]; Volunteer 005
  IFN-γ ELISpot activity of individual 15 mer peptide: 118 SFC/10^6

## QNSDVYRPINEHREH [Ap1-9]
[1]; Volunteer 001
  IFN-γ ELISpot activity of individual 15 mer peptide: 48 SFC/10^6

## ETQKCEIFNVKPTCL [Ap8-11]
[1]; Volunteer 001
  IFN-γ ELISpot activity of individual 15 mer peptide: 48 SFC/10^6
[1]; Volunteer 005
  IFN-γ ELISpot activity of individual 15 mer peptide: 218 SFC/10^6
[1]; Volunteer 008
  IFN-γ ELISpot activity of individual 15 mer peptide: 48 SFC/10^6

## RYKSHGKGY [Ep # 14, RYKSHGKGY]
[2]
  CD8^+ T cell IFN-γ response in ICS: very weak CD8^+ IFN-γ responses
  multifunctional CD8^+ T cell responses in ICS: did not appear to induce multifunctional responses
[1]; Vol 012, PBMC 7 months
  ELISpot 7m, predicted 8-10 mer epitope: 11
[1]; v012, criteria for positive 40 SFC/million
  recognition of minimal epitope in ELISpot: negative

## LLSAFEFTYMINFGR [Ap1-3]
[3]; V001
  % effect on ELISpot activity, CD4 dep: −32%
  % effect on ELISpot activity, CD8 dep: −56%
[1]; Volunteer 001
  IFN-γ ELISpot activity of individual 15 mer peptide: 48 SFC/10^6

## LMSPMTLDEMRHFYK [Ap4-9]
[3]; V005
  % effect on ELISpot activity, CD4 dep: −32%
  % effect on ELISpot activity, CD8 dep: −100%
[1]; Volunteer 002
  IFN-γ ELISpot activity of individual 15 mer peptide: 189 SFC/10^6
[1]; Volunteer 005
  IFN-γ ELISpot activity of individual 15 mer peptide: 395 SFC/10^6

## NEVVVKEEY [Ep # 1, NEVVVKEEY]
[2]
  CD8^+ T cell IFN-γ response in ICS: equal or more CD8^+ IFN-γ than the parent peptide pool

## EMRHFYKDNKYVKNL [Ap4-11]
[1]; Volunteer 005
  IFN-γ ELISpot activity of individual 15 mer peptide: 65 SFC/10^6
[1]
  ELISpot activity of 15 mer peptide: 65 sfc/m

## INEHREHPKEYEYPL [Ap1-11]
[3]; V002
  % effect on ELISpot activity, CD4 dep: −18%
  % effect on ELISpot activity, CD8 dep: −94%
[3]; V005
  % effect on ELISpot activity, CD4 dep: −37%
  % effect on ELISpot activity, CD8 dep: −100%
[1]; Volunteer 002
  IFN-γ ELISpot activity of individual 15 mer peptide: 180 SFC/10^6
[1]; Volunteer 005
  IFN-γ ELISpot activity of individual 15 mer peptide: 322 SFC/10^6

## HPKEYEYPL (listed as Plasmodium falciparum) [Ep # 9]
[2]
  CD8^+ T cell IFN-γ response in ICS: equal or more CD8^+ IFN-γ than the parent peptide pool

## CNKLVFELSASDQPK [Ap7-7]
[1]; Volunteer 001
  IFN-γ ELISpot activity of individual 15 mer peptide: 77 SFC/10^6

## NEFPAIDLF (listed as Plasmodium falciparum) [Ep # 2]
[2]
  CD8^+ T cell IFN-γ response in ICS: equal or more CD8^+ IFN-γ than the parent peptide pool

## TSNNEVVVKEEYKDE [Ap10-13]
[3]; V001
  % effect on ELISpot activity, CD4 dep: +148%
  % effect on ELISpot activity, CD8 dep: −88%
[3]; V012
  % effect on ELISpot activity, CD4 dep: +14%
  % effect on ELISpot activity, CD8 dep: −100%
[1]; Volunteer 001
  IFN-γ ELISpot activity of individual 15 mer peptide: 250 SFC/10^6
[1]; Volunteer 012
  IFN-γ ELISpot activity of individual 15 mer peptide: 233 SFC/10^6

## MTLDEMRHFYKDNKY [Ap4-10]
[1]; Volunteer 002
  IFN-γ ELISpot activity of individual 15 mer peptide: 82 SFC/10^6
[1]; Volunteer 005
  IFN-γ ELISpot activity of individual 15 mer peptide: 118 SFC/10^6

## NQYLKDGGFAFPPTE [Ap4-5]
[1]; Volunteer 005
  IFN-γ ELISpot activity of individual 15 mer peptide: 50 SFC/10^6
[1]
  ELISpot activity of 15 mer peptide: 50 sfc/m

## CEIFNVKPTCLINNS [Ap8-12]
[1]; Volunteer 005
  IFN-γ ELISpot activity of individual 15 mer peptide: 127 SFC/10^6

## ETQKCEIFNV (listed as Plasmodium falciparum) [Ep # 10]
[2]
  CD8^+ T cell IFN-γ response in ICS: very weak CD8^+ IFN-γ responses
  multifunctional CD8^+ T cell responses in ICS: did not appear to induce multifunctional responses

## KEYEYPLHQEHTYQQ [Ap1-13]
[3]; V001
  % effect on ELISpot activity, CD4 dep: +133%
  % effect on ELISpot activity, CD8 dep: −76%
[1]; Volunteer 001
  IFN-γ ELISpot activity of individual 15 mer peptide: 42 SFC/10^6

## NSTCRFFVCK (listed as Plasmodium falciparum)
[4]
  T-cell response (IFN-γ SFC): significant T-cell response

## FKADRYKSHGKGYNW [Ap8-6]
[1]; Volunteer 012
  IFN-γ ELISpot activity of individual 15 mer peptide: 143 SFC/10^6
